Data published in patent US9790169B2, “IDO inhibitors” (BRISTOL-MYERS SQUIBB COMPANY, priority 2015, dated 2017).
pIC50: −log10 of the molar value.

Target: human IDO1 (Homo sapiens, UniProt P14902)
Experiment: Assessment of human IDO-1 inhibitory activity in HEK cells (human IDO1/HEK293 cells, kynurenine read-out with Ehrlich reagent, absorbance 490 nm)
Type: cell-based
Set-up: expressed in transfected cells
Conditions: HEK Human IDO-1 cellular assay
Method in brief: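 HEK293 cells stably expressing human IDO1 were seeded at 10,000 per well in phenol red-free RPMI with 10% FBS, treated with compound for 20 h at 37 °C. Kynurenine was measured after TCA (0.2% final) and 30 min at 50 °C, using Ehrlich reagent, A490. IC50 normalised to DMSO (0%) and 500 nM reference standard (100%).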

Chain of human IDO1 (P14902 whole entry): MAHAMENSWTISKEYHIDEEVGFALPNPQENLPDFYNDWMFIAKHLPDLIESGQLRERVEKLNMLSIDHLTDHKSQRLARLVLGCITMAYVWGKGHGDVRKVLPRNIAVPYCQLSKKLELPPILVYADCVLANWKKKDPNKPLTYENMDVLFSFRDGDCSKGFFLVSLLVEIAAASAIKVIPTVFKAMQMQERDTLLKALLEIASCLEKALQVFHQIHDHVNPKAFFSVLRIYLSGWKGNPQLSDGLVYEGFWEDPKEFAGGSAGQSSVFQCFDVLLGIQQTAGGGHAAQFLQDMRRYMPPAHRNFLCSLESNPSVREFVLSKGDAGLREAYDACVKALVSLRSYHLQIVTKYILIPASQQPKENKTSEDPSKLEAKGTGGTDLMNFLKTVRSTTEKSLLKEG

| SMILES | pIC50 |
| --- | --- |
| CC[C@H](CC(=O)O)c1ccc(N2CCC[C@@H]2C(C)(C)O)c(NC(=O)Nc2ccc(C)cc2)c1 (single isomer, unassigned) [Example 774] | < 7.30 |
| CCC(CC(=O)O)c1ccc(N2CCC[C@@H]2C(C)(C)O)c(Nc2ccc3c(c2)OC(F)(F)O3)c1 (single isomer, unassigned) [Example 781] | < 7.30 |
| CCC(CC(=O)O)c1ccc(N2CCC[C@@H]2C(C)(C)O)c(Nc2ccc(F)cc2)c1 (single isomer, unassigned) [Example 784] | < 7.30 |
| CC[C@@H](CC(=O)O)c1ccc(N2CCC[C@H]2C(C)(C)F)c(NC(=O)Nc2ccc(C)cc2)c1 (single isomer, unassigned) [Example 785] | < 7.30 |
| CCC(CC(=O)O)c1ccc(N2CCC[C@H]2C(C)(C)F)c(NC(=O)Nc2ccc(Cl)cc2F)c1 (single isomer, unassigned) [Example 786] | < 7.30 |
| CCC(CC(=O)O)c1ccc(N2CCC[C@H]2C(C)(C)F)c(Nc2ccc3nc(C)sc3c2)c1 (single isomer, unassigned) [Example 789] | < 7.30 |
| CCC(CC(=O)O)c1ccc(N2CCC[C@H]2C(C)(C)F)c(NC(=O)Nc2ccc(C)cc2)c1 (single isomer, unassigned) [Example 792] | < 7.30 |
| CCC(CC(=O)O)c1ccc(N2CCC[C@H]2C(C)(C)F)c(Nc2ccc3c(c2)OC(F)(F)O3)c1 (single isomer, unassigned) [Example 796] | < 7.30 |
| CC(CC(=O)O)c1ccc(N2CCC[C@H]2C(C)(C)O)c(Nc2ccc(C#N)cc2)c1 (single isomer, unassigned) [Example 797] | < 7.30 |
| CC(CC(=O)O)c1ccc(N2CCC[C@H]2C(C)(C)O)c(Nc2ccc(F)cc2)c1 (single isomer, unassigned) [Example 798] | < 7.30 |
| CC(CC(=O)O)c1ccc(N2CCC[C@H]2C(C)(C)O)c(Nc2ccc(Cl)cc2)c1 (single isomer, unassigned) [Example 799] | < 7.30 |
| CCOc1ncc(Nc2cc(C(C)CC(=O)O)ccc2N2CCC[C@H]2C(C)(C)O)cn1 (single isomer, unassigned) [Example 800] | < 7.30 |
| COc1ncc(Nc2cc(C(C)CC(=O)O)ccc2N2CCC[C@H]2C(C)(C)O)cn1 (single isomer, unassigned) [Example 801] | < 7.30 |
| CCOc1ccc(NC(=O)Nc2cc([C@H](CC)CC(=O)O)ccc2N2CCC[C@H]2C(C)(C)O)cc1 (single isomer, unassigned) [Example 810] | < 7.30 |
| CCC(CC(=O)O)c1ccc(N2CCC[C@H]2C(C)(C)O)c(NC(=O)Nc2ccc(OC)cc2)c1 (single isomer, unassigned) [Example 811] | < 7.30 |
| CCC(CC(=O)O)c1ccc(N2CCC[C@H]2C(C)(C)O)c(NC(=O)Nc2ccc(Cl)cc2F)c1 (single isomer, unassigned) [Example 812] | < 7.30 |
| CCC(CC(=O)O)c1ccc(N2CCC[C@H]2C(C)(C)O)c(NC(=O)Nc2ccc(F)cc2)c1 (single isomer, unassigned) [Example 813] | < 7.30 |
| CCC(CC(=O)O)c1ccc(N2CCC[C@H]2C(C)(C)O)c(NC(=O)Nc2ccc(OC)cc2F)c1 (single isomer, unassigned) [Example 814] | < 7.30 |

| SMILES | pIC50 |
| --- | --- |
| CCC(CC(=O)O)c1ccc(N2CCC[C@H]2C(C)(C)O)c(NC(=O)Nc2cc(C)on2)c1 (single isomer, unassigned) [Example 815] | < 7.30 |
| CCOc1ccc(Nc2cc([C@H](CC)CC(=O)O)ccc2N2CCC[C@H]2C(C)(C)O)cc1 (single isomer, unassigned) [Example 816] | < 7.30 |
| CCC(CC(=O)O)c1ccc(N2CCC[C@H]2C(C)(C)O)c(Nc2ccnc(N3CCOCC3)n2)c1 (single isomer, unassigned) [Example 817] | < 7.30 |
| CCC(CC(=O)O)c1ccc(N2CCC[C@H]2C(C)(C)O)c(Nc2ccc(OCC3CC3)cc2)c1 (single isomer, unassigned) [Example 818] | < 7.30 |
| CCc1ccc(Nc2cc(C(CC)CC(=O)O)ccc2N2CCC[C@H]2C(C)(C)O)cc1 (single isomer, unassigned) [Example 819] | < 7.30 |
| CCC(CC(=O)O)c1ccc(N2CCC[C@H]2C(C)(C)O)c(Nc2cnc(OCC3CC3)nc2)c1 (single isomer, unassigned) [Example 822] | < 7.30 |
| CCC(CC(=O)O)c1ccc(N2CCC[C@H]2C(C)(C)O)c(Nc2cnc(OC)nc2)c1 (single isomer, unassigned) [Example 824] | < 7.30 |
| CCOc1ccc(NC(=O)Nc2cc(C(CC)CC(=O)O)ccc2N2CCC[C@H]2C(C)(C)O)cc1 (single isomer, unassigned) [Example 826] | < 7.30 |
| CCOc1ccc(Nc2cc(C(CC)CC(=O)O)ccc2N2CCC[C@H]2C(C)(C)O)cc1 (single isomer, unassigned) [Example 833] | < 7.30 |
| CCC(CC(=O)O)c1ccc(N2CCC[C@H]2C(C)(C)O)c(Nc2ccc3c(c2)OC(F)(F)O3)c1 (single isomer, unassigned) [Example 837] | < 7.30 |
| CCOc1ncc(Nc2cc(C(CC)CC(=O)O)ccc2N2CCC[C@H]2C(C)(C)O)cn1 (single isomer, unassigned) [Example 839] | < 7.30 |
| CC[C@H](CC(=O)O)c1ccc(N2CCC[C@@H]2C(C)(C)O)c(Nc2cnc(OCC3CC3)nc2)c1 (single isomer, unassigned) [Example 842] | < 7.30 |
| CCOc1ncc(Nc2cc(C(CC)CC(=O)O)ccc2N2CCOC[C@H]2C(C)C)cn1 (single isomer, unassigned) [Example 891] | < 7.30 |
| CCC(CC(=O)O)c1ccc(N2CCOC[C@H]2C(C)C)c(Nc2ccc3c(c2)OC(F)(F)O3)c1 (single isomer, unassigned) [Example 893] | < 7.30 |
| CCC(CC(=O)O)c1ccc(N2CCOC[C@H]2C(C)C)c(NC(=O)Nc2ccc(C)cc2)c1 (single isomer, unassigned) [Example 895] | < 7.30 |
| CCC(CC(=O)O)c1ccc(N2CCOC[C@H]2C(C)C)c(NC(=O)Nc2ccc(Cl)cc2F)c1 (single isomer, unassigned) [Example 896] | > 7.30 |
| CCC(CC(=O)O)c1ccc(N2CCOC[C@H]2C(C)C)c(NC(=O)Nc2ccc(OC)cc2F)c1 (single isomer, unassigned) [Example 897] | < 7.30 |
| CCC(CC(=O)O)c1ccc(N2CCOC[C@H]2C(C)C)c(NC(=O)Nc2cc(C)on2)c1 (single isomer, unassigned) [Example 898] | < 7.30 |

Next, values leading:

| pIC50 | SMILES |
| --- | --- |
| > 7.30 | CC[C@@H](CC(=O)O)c1ccc(N2CCC[C@@H]2C(C)(C)O)c(Nc2ccc(C#N)cc2)c1 (single isomer, unassigned) [Example 771] |
| > 7.30 | CCC(CC(=O)O)c1ccc(N2CCC[C@@H]2C(C)(C)O)c(Nc2ccc(Cl)cc2)c1 (single isomer, unassigned) [Example 773] |
| > 8.30 | CC[C@H](CC(=O)O)c1ccc(N2CCC[C@@H]2C(C)(C)O)c(Nc2ccc(Cl)cc2)c1 (single isomer, unassigned) [Example 780] |
| > 7.30 | CCC(CC(=O)O)c1ccc(N2CCC[C@@H]2C(C)(C)O)c(Nc2ccc(C#N)cc2)c1 (single isomer, unassigned) [Example 782] |
| > 8.30 | CCC(CC(=O)O)c1ccc(N2CCC[C@@H]2C(C)(C)O)c(Nc2ccc(Cl)cc2)c1 (single isomer, unassigned) [Example 783] |
| > 8.30 | CC[C@@H](CC(=O)O)c1ccc(N2CCC[C@H]2C(C)(C)F)c(Nc2ccc(Cl)cc2)c1 (single isomer, unassigned) [Example 788] |
| > 7.30 | CCC(CC(=O)O)c1ccc(N2CCC[C@H]2C(C)(C)F)c(Nc2ccc3c(c2)OC(F)(F)O3)c1 (single isomer, unassigned) [Example 790] |
| > 7.30 | CC[C@H](CC(=O)O)c1ccc(N2CCC[C@H]2C(C)(C)F)c(NC(=O)Nc2ccc(Cl)cc2F)c1 (single isomer, unassigned) [Example 791] |
| > 7.30 | CCC(CC(=O)O)c1ccc(N2CCC[C@H]2C(C)(C)F)c(Nc2ccc3nc(C)sc3c2)c1 (single isomer, unassigned) [Example 794] |
| > 7.30 | CC(CC(=O)O)c1ccc(N2CCC[C@H]2C(C)(C)O)c(Nc2ccc(Cl)cc2)c1 (single isomer, unassigned) [Example 804] |
| > 8.30 | CCC(CC(=O)O)c1ccc(N2CCC[C@H]2C(C)(C)O)c(Nc2ccc(Cl)cc2)c1 (single isomer, unassigned) [Example 820] |
| > 7.30 | CCC(CC(=O)O)c1ccc(N2CCC[C@H]2C(C)(C)O)c(Nc2ccc3c(c2)OC(F)(F)O3)c1 (single isomer, unassigned) [Example 821] |
| > 7.30 | CCOc1ncc(Nc2cc(C(CC)CC(=O)O)ccc2N2CCC[C@H]2C(C)(C)O)cn1 (single isomer, unassigned) [Example 823] |
| > 7.30 | CCC(CC(=O)O)c1ccc(N2CCC[C@H]2C(C)(C)O)c(Nc2ccc(C#N)cc2)c1 (single isomer, unassigned) [Example 825] |
| > 7.30 | CCC(CC(=O)O)c1ccc(N2CCC[C@H]2C(C)(C)O)c(Nc2ccc(Cl)cc2)c1 (single isomer, unassigned) [Example 836] |
| > 7.30 | CCC(CC(=O)O)c1ccc(N2CCC[C@H]2C(C)(C)O)c(Nc2ccc(F)cc2)c1 (single isomer, unassigned) [Example 840] |
| > 7.30 | CCC(CC(=O)O)c1ccc(N2CCOC[C@H]2C(C)C)c(Nc2ccc3nc(C)sc3c2)c1 (single isomer, unassigned) [Example 892] |
| > 7.30 | CCOc1ccc(Nc2cc(C(CC)CC(=O)O)ccc2N2CCOC[C@H]2C(C)C)cc1 (single isomer, unassigned) [Example 894] |
| > 8.30 | CCC(CC(=O)O)c1ccc(N2CCOC[C@H]2C(C)C)c(Nc2ccc(C#N)cc2)c1 (single isomer, unassigned) [Example 899] |
| > 8.30 | CCC(CC(=O)O)c1ccc(N2CCOC[C@H]2C(C)C)c(Nc2ccc(Cl)cc2)c1 (single isomer, unassigned) [Example 900] |
